Structures are written as SMILES. “And” between values parts separate entries of the source, which are not always exact repeats. Equal values may be shown once.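 Method: 48-hour compound exposure of cells in 96-well plates, five concentrations, linear interpolation of endpoints. GI50 is the concentration that inhibits growth by half. TGI: total growth inhibition.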 A value given as a limit tells only on which side of the number the result lay.

Among the test systems are NCI-H460 lung; IGROV1 ovarian; SW-620 colon; SNB-75 CNS; HT29 colon; TK-10 renal; MDA-MB-435; CAKI-1 renal; 786-0 renal; M14 melanoma; RPMI-8226 leukemia; OVCAR-8 ovarian; SF-539 CNS; A498 renal.
Common to all, as to assay: growth of human tumour cells (NCI), 48 h

As to `CCOC(=O)C1Cc2ccc(C)cc2C1=O` (stereo not given), the TGI with NCI-H460 lung, in the test with IGROV1 ovarian, in the test on SW-620 colon, in the test with SNB-75 CNS, in the test on HT29 colon and in the test with TK-10 renal was over 100 µM throughout. Besides, the TGI in the test on MDA-MB-435, in the test with CAKI-1 renal, with 786-0 renal, in the test on M14 melanoma, in the test with RPMI-8226 leukemia and with OVCAR-8 ovarian was over 100 µM in each case. For the same compound, in the test on SF-539 CNS, the TGI was over 100 µM.
As for `O=C1C[C@@H]2[C@@H](C=CC23CCCC3)N1O`, the TGI with NCI-H460 lung, in the test with IGROV1 ovarian, with SW-620 colon, in the test with A498 renal, with SNB-75 CNS and in the test with HT29 colon was over 100 µM throughout. In addition, the TGI in the test with TK-10 renal, in the test with CAKI-1 renal, in the test with 786-0 renal, in the test on M14 melanoma, with RPMI-8226 leukemia and in the test with OVCAR-8 ovarian was over 100 µM each time. Further, the TGI in the test with SF-539 CNS is over 100 µM.
`COc1cccc(C2c3cc4c(cc3OC(N3CCCC3)C2c2ccccc2)OCO4)c1O` (stereo not given): the TGI was determined as 33.7 µM in the test on NCI-H460 lung; 47.8 µM in the test with IGROV1 ovarian; 25.4 µM with SW-620 colon; 26.2 µM in the test on HT29 colon; 73.6 µM in the test with TK-10 renal; 22.8 µM with MDA-MB-435. The TGI with CAKI-1 renal worked out at 7 µM; in the test with 786-0 renal it was 27.8 µM; in the test with M14 melanoma, 25.4 µM; in the test on RPMI-8226 leukemia, 31 µM; in the test on OVCAR-8 ovarian it was 61.2 µM; with SF-539 CNS, 21.7 µM.
Consider `COC(=O)c1c(C)c2c(c(C)c1O)OC(=O)c1c(C)cc(O)c(C=O)c1O2`, for which the TGI in the test on NCI-H460 lung, in the test with IGROV1 ovarian, in the test with SW-620 colon, in the test on HT29 colon, in the test with TK-10 renal and with MDA-MB-435 was over 100 µM in each case. In addition, the TGI in the test on 786-0 renal, in the test with M14 melanoma, in the test on RPMI-8226 leukemia, in the test with OVCAR-8 ovarian and with SF-539 CNS was over 100 µM throughout.
With `O=C1/C(=C/c2ccc([N+](=O)[O-])cc2)Oc2cc(O)ccc21`, the TGI in the test on NCI-H460 lung was over 100 µM; with IGROV1 ovarian, over 100 µM; with SW-620 colon, over 100 µM; with SNB-75 CNS it was over 100 µM; in the test with TK-10 renal, 82.5 µM; in the test on MDA-MB-435, over 100 µM. The TGI in the test on CAKI-1 renal is 58.7 µM; in the test on 786-0 renal, 70.6 µM; with M14 melanoma, over 100 µM; in the test on RPMI-8226 leukemia it was 65.8 µM; in the test with OVCAR-8 ovarian, over 100 µM; with SF-539 CNS, 94.4 µM.
For `COc1cc2c(c(OC)c1OC)[C@@H]1CCCCC[C@@H]1CCC2=O`, the TGI in the test with NCI-H460 lung, in the test with IGROV1 ovarian, in the test with SW-620 colon, in the test on A498 renal, with SNB-75 CNS and with HT29 colon was over 100 µM each time. Moreover, the TGI in the test with TK-10 renal is over 100 µM; in the test with CAKI-1 renal, over 100 µM; with 786-0 renal it was over 100 µM; with M14 melanoma, over 100 µM; in the test on RPMI-8226 leukemia, over 64.1 µM; with OVCAR-8 ovarian, over 100 µM. Besides, the TGI in the test on SF-539 CNS is over 100 µM.
With `COC(=O)C(C(=O)C(=O)Nc1nc2ccc(OC)cc2s1)c1cnc2ccccc2n1` (stereo not given), the TGI with NCI-H460 lung, in the test with IGROV1 ovarian, with SW-620 colon, with A498 renal, in the test on SNB-75 CNS and in the test with HT29 colon was over 100 µM each time. The TGI in the test on TK-10 renal, in the test with CAKI-1 renal, in the test on 786-0 renal, in the test on M14 melanoma, with RPMI-8226 leukemia and in the test on SF-539 CNS was over 100 µM in each case.
For `COc1cc(CNc2ccc(C)cc2)cc(OC)c1OC`, the TGI is > 23.8 µM and 3.92 µM in the test with NCI-H460 lung; over 100 µM with IGROV1 ovarian; over 74.2 µM in the test with A498 renal; over 100 µM in the test with SNB-75 CNS; 0.852 µM in the test with HT29 colon; over 100 µM with TK-10 renal. For the same compound, the TGI in the test with CAKI-1 renal was over 100 µM; in the test with 786-0 renal it was over 44.9 µM; with M14 melanoma it was over 100 µM; in the test with RPMI-8226 leukemia it was over 50.2 µM. Moreover, the GI50 with SW-620 colon is 0.203 µM; in the test on A498 renal it was over 37.5 µM; in the test on HT29 colon it was 0.156 µM; with TK-10 renal, 4.28 µM; with CAKI-1 renal it was 0.235 µM and 0.0641 µM; in the test with M14 melanoma, 0.124 µM.
Regarding `Cc1nsc2cc(Cl)n(C)c(=O)c12`, the TGI in the test with NCI-H460 lung, with IGROV1 ovarian, in the test with SW-620 colon, with A498 renal, in the test on SNB-75 CNS and with HT29 colon was over 100 µM each time. In addition, the TGI in the test on TK-10 renal, with CAKI-1 renal, in the test on 786-0 renal, in the test with M14 melanoma, in the test with RPMI-8226 leukemia and with OVCAR-8 ovarian was over 100 µM throughout. In the test with SF-539 CNS, this compound showed a TGI of over 100 µM.
Consider `O=C(CC(=O)n1nc(-c2ccccc2)c(N=Nc2ccc([N+](=O)[O-])cc2)c1-c1ccccc1)Nc1ccc(Cl)cc1`, for which the TGI in the test on NCI-H460 lung was over 100 µM; in the test on IGROV1 ovarian it was over 100 µM; in the test with SW-620 colon, over 100 µM; with SNB-75 CNS, over 100 µM; with HT29 colon, 58.5 µM; with TK-10 renal it was 69.1 µM. The TGI was 99.3 µM in the test with CAKI-1 renal; over 100 µM in the test with 786-0 renal; over 100 µM in the test on M14 melanoma; over 100 µM in the test with RPMI-8226 leukemia; over 100 µM in the test on OVCAR-8 ovarian; 75.8 µM in the test with SF-539 CNS.
Consider `COc1cc(Br)c(/C=N/N=C(\N)NO)cc1OC`, for which the TGI with NCI-H460 lung was 27.2 µM; in the test with IGROV1 ovarian, over 100 µM; with SW-620 colon it was over 100 µM; in the test on A498 renal, 78.9 µM; in the test with SNB-75 CNS, 65.9 µM; with HT29 colon it was 86.3 µM. The TGI in the test on TK-10 renal is over 100 µM; with CAKI-1 renal it was 79 µM; with 786-0 renal it was 92.8 µM; in the test with M14 melanoma, 34.7 µM; in the test with RPMI-8226 leukemia it was over 100 µM; in the test on OVCAR-8 ovarian it was 76 µM. In addition, the TGI with SF-539 CNS amounted to 58.7 µM.
Take `COc1cc(Br)c(C=Nc2cccc3ccc(OS(=O)(=O)c4ccc([N+](=O)[O-])cc4)cc23)cc1OC`: the TGI with NCI-H460 lung, in the test on IGROV1 ovarian, in the test on SW-620 colon, with A498 renal, with HT29 colon and in the test on CAKI-1 renal was over 100 µM throughout. In addition, the TGI in the test on 786-0 renal, with RPMI-8226 leukemia, with OVCAR-8 ovarian and in the test on SF-539 CNS was over 100 µM throughout.
`COc1cc(C(C)c2cc3c(cc2OCCCCCOc2cc4c(cc2C(C)c2cc(OC)c(OC)c(OC)c2)OCO4)OCO3)cc(OC)c1OC` (stereo not given): the TGI in the test on NCI-H460 lung, in the test on IGROV1 ovarian, with SW-620 colon, with A498 renal, in the test on SNB-75 CNS and in the test with HT29 colon was over 100 µM each time. For the same compound, the TGI with CAKI-1 renal, with 786-0 renal, with M14 melanoma, with RPMI-8226 leukemia, in the test on OVCAR-8 ovarian and in the test on SF-539 CNS was over 100 µM each time.
On to `c1ccc(CSCCC(SCc2ccccc2)SCc2ccccc2)cc1`, for which the TGI in the test with NCI-H460 lung, with IGROV1 ovarian, with SW-620 colon, in the test on A498 renal, in the test on SNB-75 CNS and with HT29 colon was over 10 µM in each case. The TGI in the test on TK-10 renal, with CAKI-1 renal, in the test with 786-0 renal, in the test on M14 melanoma, with RPMI-8226 leukemia and in the test on OVCAR-8 ovarian was over 10 µM each time. In the test on SF-539 CNS, this compound registered a TGI of over 10 µM.
With `c1ccc(Nc2nnc(-c3ccccc3Nc3ccccc3-c3nnc(Nc4ccccc4)s3)s2)cc1`, the TGI in the test on NCI-H460 lung, in the test with IGROV1 ovarian, in the test with SW-620 colon, with SNB-75 CNS, in the test on HT29 colon and in the test with TK-10 renal was over 100 µM in each case. Also, the TGI in the test with MDA-MB-435, in the test on 786-0 renal, in the test on M14 melanoma, in the test on OVCAR-8 ovarian and in the test on SF-539 CNS was over 100 µM throughout.
In the case of `CC(=O)NC1=C(NCCO)C(=O)c2ccccc2C1=O`, the TGI in the test with NCI-H460 lung, in the test with IGROV1 ovarian, in the test on SW-620 colon, in the test on SNB-75 CNS, with HT29 colon and in the test with TK-10 renal was over 50 µM throughout. The TGI in the test with 786-0 renal, with M14 melanoma, with OVCAR-8 ovarian and in the test with SF-539 CNS was over 50 µM throughout.
`CC1(C)COC(c2cccc(C(=O)c3ccccc3)c2)=N1`: the TGI with NCI-H460 lung, in the test on IGROV1 ovarian, with SW-620 colon, with HT29 colon, with TK-10 renal and with CAKI-1 renal was over 100 µM throughout. The TGI in the test with 786-0 renal, in the test on RPMI-8226 leukemia and with OVCAR-8 ovarian was over 100 µM in each case.

The values above are taken from PubChem BioAssay (NCI).
